In US8916498B2, “Safening 6-(trisubstituted phenyl)-4-amino-2-pyridinecarboxylate herbicide injury on direct seeded and transplanted paddy rice” (priority 2008, dated 2014):
Values joined by “and” are separate entries in the source; they are usually repeats but may differ in a detail not shown here. Equal entries are not always repeated.

Legend:
transplanted paddy rice [1] = test: Safening activity of herbicide mixtures in transplanted paddy rice; format: in vivo, Oryza sativa
Procedure: (§1) The prepared mud was dispensed in 250 mL aliquots into 480 mL non-perforated plastic pots with a surface area of 91.6 cm^2 leaving a headspace of 3 cm in each pot. Rice seeds were planted in Sun Gro MetroMix 306 planting mixture, which typically has a pH of 6.0 to 6.8 and an organic matter content of about 30 percent, in plastic plug trays. Seedlings at the second or third leaf stage of growth were transplanted into 650 mL of mud contained in 960 mL non-perforated plastic pots with a surface area of 91.6 cm^2 four days prior to herbicide application. The paddy was created by filling the 3 cm headspace of the pots with water. […] Nutrients were added as Osmocote (17:6:10, Nitrogen:Phosphorus:Potassium (N:P:K)+minor nutrients) at 2 grams (g) per cup.
(§2) For technical grade compounds and safeners, a weighed amount, determined by the highest rate to be tested, was placed in an individual 120 mL glass vial and was dissolved in 20 mL of acetone to obtain concentrated stock solutions. […] The concentrated stock solutions obtained were diluted with 20 mL of acetone. Applications were made by injecting an appropriate amount of the stock solution into the aqueous layer of the paddy. […] All treated plant material received the same concentration of acetone and crop oil concentrate.
Forms of compound 1 were applied on an acid equivalent basis.

direct seeded rice = conditions: partner 280 g/ha alone
weed test plant species = test: Herbicidal safening in transplanted paddy rice, visual injury on weeds; format: in vivo; conditions: after 3 weeks; for Visual Injury (%) SCPJU Obs: Scirpus juncoides
Procedure: (§3) Evaluation of Herbicidal Safening in Transplanted Paddy Rice
as §1, §2

transplanted paddy rice [2] = test: Herbicidal safening in transplanted paddy rice, visual injury; format: in vivo, Oryza sativa; conditions: after 3 weeks
Procedure: as §3, §1, §2

CYPDI = test: Postemergence herbicidal safening in direct seeded rice, visual injury on weed; format: in vivo; conditions: alone, after 3 weeks
ORYSA (rice) = test: Postemergence herbicidal safening in direct seeded rice, visual injury; conditions: alone, after 3 weeks
Description: A=observed efficacy of active ingredient A at the same concentration as used in the mixture.
B=observed efficacy of active ingredient B at the same concentration as used in the mixture.

ECHCO = test: Postemergence herbicidal safening in direct seeded rice, visual injury on weed; format: in vivo; conditions: alone, after 3 weeks
SEBEX = test: as above; format: in vivo; conditions: alone, after 3 weeks

## CS(=O)(=O)c1ccc(C(=O)C2C(=O)CCCC2=O)c(Cl)c1 [Sulcotrione]
Transplanted paddy rice [1]; partner 280 g/ha alone
  Visual Injury (%) ‘M202’ ORYSA Obs: 10%
Direct seeded rice
  ORYSA Visual Injury (%) ‘Wells’ Obs: 99%

## CCN(CC)CC.COc1c(Cl)ccc(-c2cc(N)c(Cl)c(C(=O)O)n2)c1F [Compound 1 TEA Salt]
Weed test plant species; herbicide 70 g ae/ha alone
  Visual Injury (%) SCPJU Obs: 100%
  Visual Injury (%) ECHCG Obs: 99%
Weed test plant species; herbicide 140 g ae/ha alone
  Visual Injury (%) SCPJU Obs: 100%
  Visual Injury (%) ECHCG Obs: 100%
Transplanted paddy rice [1]; compound 35 g/ha alone
  Visual Injury (%) ‘M202’ ORYSA Obs: 20%
Transplanted paddy rice [1]; compound 70 g/ha alone
  Visual Injury (%) ‘M202’ ORYSA Obs: 35% and 50%
Transplanted paddy rice [2]; herbicide 70 g ae/ha alone
  Visual Injury (%) ‘M202’ ORYSA Obs: 65%
  ‘M202’ ORYSA Visual Injury (%) Obs: 60%
Transplanted paddy rice [2]; herbicide 140 g ae/ha alone
  Visual Injury (%) ‘M202’ ORYSA Obs: 70%
  ‘M202’ ORYSA Visual Injury (%) Obs: 85%

## O=c1c(Cl)c[nH]c(Cl)c1Cl [Pyriclor]
Transplanted paddy rice [1]; partner 140 g/ha alone
  Visual Injury (%) ‘M202’ ORYSA Obs: 0%

## CCCCOC(=O)[C@@H](C)Oc1ccc(Oc2ccc(C#N)cc2F)cc1 [Cyhalofop-butyl]
Transplanted paddy rice [1]; partner 90 g/ha alone
  Visual Injury (%) ‘M202’ ORYSA Obs: 0%
Transplanted paddy rice [1]; partner 180 g/ha alone
  Visual Injury (%) ‘M202’ ORYSA Obs: 0%

## CCOC(=O)C1=NOC(c2ccccc2)(c2ccccc2)C1 [Isoxadifen-ethyl, ethyl 4,5-dihydro-5,5-diphenyl-3-isoxazole-carboxylate]
CYPDI; 17.5 g ai/ha
  Visual Injury (%) CYPDI Obs: 0%
CYPDI; 35 g ai/ha
  Visual Injury (%) CYPDI Obs: 0%
CYPDI; 70 g ai/ha
  Visual Injury (%) CYPDI Obs: 0%
CYPDI; 140 g ai/ha
  Visual Injury (%) CYPDI Obs: 0%
Weed test plant species; safener 140 g ai/ha alone
  Visual Injury (%) SCPJU Obs: 0%
  Visual Injury (%) ECHCG Obs: 0%
Weed test plant species; safener 280 g ai/ha alone
  Visual Injury (%) SCPJU Obs: 0%
  Visual Injury (%) ECHCG Obs: 0%
Weed test plant species; safener 560 g ai/ha alone
  Visual Injury (%) SCPJU Obs: 0%
  Visual Injury (%) ECHCG Obs: 0%
ORYSA (rice); 17.5 g ai/ha
  Visual Injury (%) ‘Lemont’ ORYSA Obs: 0%
ORYSA (rice); 35 g ai/ha
  Visual Injury (%) ‘Lemont’ ORYSA Obs: 5%
ORYSA (rice); 70 g ai/ha
  Visual Injury (%) ‘Lemont’ ORYSA Obs: 10%
ORYSA (rice); 140 g ai/ha
  Visual Injury (%) ‘Lemont’ ORYSA Obs: 5%
ECHCO; 17.5 g ai/ha
  Visual Injury (%) ECHCO Obs: 0%
ECHCO; 35 g ai/ha
  Visual Injury (%) ECHCO Obs: 0%
ECHCO; 70 g ai/ha
  Visual Injury (%) ECHCO Obs: 0%
ECHCO; 140 g ai/ha
  Visual Injury (%) ECHCO Obs: 0%
SEBEX; 17.5 g ai/ha
  Visual Injury (%) SEBEX Obs: 0%
SEBEX; 35 g ai/ha
  Visual Injury (%) SEBEX Obs: 0%
SEBEX; 70 g ai/ha
  Visual Injury (%) SEBEX Obs: 0%
SEBEX; 140 g ai/ha
  Visual Injury (%) SEBEX Obs: 0%
Transplanted paddy rice [2]; safener 140 g ai/ha alone
  Visual Injury (%) ‘M202’ ORYSA Obs: 0%
Transplanted paddy rice [2]; safener 280 g ai/ha alone
  Visual Injury (%) ‘M202’ ORYSA Obs: 0%
Transplanted paddy rice [2]; safener 560 g ai/ha alone
  Visual Injury (%) ‘M202’ ORYSA Obs: 0%
Transplanted paddy rice [2]; safener 1120 g ae/ha alone
  ‘M202’ ORYSA Visual Injury (%) Obs: 0%
